# Experimental data: PubChem BioAssay (NCI)
#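 Five concentrations, 48 hours, 96-well plates. TGI denotes the concentration required for complete inhibition of growth.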
# Experiments:
# Assay in all cases: NCI tumour cell line growth inhibition, 48 h
# SK-OV-3 ovarian = system: SK-OV-3 ovarian
# PC-3 prostate = system: PC-3 prostate
# SN12C renal = system: SN12C renal
# SF-268 CNS = system: SF-268 CNS
# OVCAR-3 ovarian = system: OVCAR-3 ovarian
# SF-539 CNS = system: SF-539 CNS
# K-562 leukemia = system: K-562 leukemia
# KM12 colon = system: KM12 colon
# SF-295 CNS = system: SF-295 CNS
# A549 NSCLC = system: A549 NSCLC
# MCF7 breast = system: MCF7 breast
# NCI-H460 lung = system: NCI-H460 lung
# HOP-92 NSCLC = system: HOP-92 NSCLC
# DU-145 prostate = system: DU-145 prostate
# SK-MEL-28 melanoma = system: SK-MEL-28 melanoma
# HT29 colon = system: HT29 colon
# OVCAR-8 ovarian = system: OVCAR-8 ovarian
# IGROV1 ovarian = system: IGROV1 ovarian
# HL-60(TB) leukemia = system: HL-60(TB) leukemia
# MDA-MB-231 breast = system: MDA-MB-231 breast
SMILES,TGI (SK-OV-3 ovarian),TGI (PC-3 prostate),TGI (SN12C renal),TGI (SF-268 CNS),TGI (OVCAR-3 ovarian),TGI (SF-539 CNS),TGI (K-562 leukemia),TGI (KM12 colon),TGI (SF-295 CNS),TGI (A549 NSCLC),TGI (MCF7 breast),TGI (NCI-H460 lung),TGI (HOP-92 NSCLC),TGI (DU-145 prostate),TGI (SK-MEL-28 melanoma),TGI (HT29 colon),TGI (OVCAR-8 ovarian),TGI (IGROV1 ovarian),TGI (HL-60(TB) leukemia),TGI (MDA-MB-231 breast)
O=C(O)CCCC#CCCCC(=O)O,> 100 µM,> 100 µM,> 100 µM,> 100 µM,> 100 µM,> 100 µM,> 100 µM,> 100 µM,> 100 µM,> 100 µM,> 100 µM,> 100 µM,> 100 µM,> 100 µM,> 100 µM,> 100 µM,> 100 µM,> 100 µM,–,–
CC1CC(=O)NC2CC1C2(C)C (centres undefined),–,–,> 100 µM,> 100 µM,> 100 µM,–,> 100 µM,> 100 µM,> 100 µM,> 100 µM,> 100 µM,> 100 µM,> 100 µM,> 100 µM,> 100 µM,> 100 µM,> 100 µM,> 100 µM,> 100 µM,> 100 µM
CCCCC/C(=N\c1nc[nH]c1C(N)=O)OCC,> 100 µM,> 100 µM,> 100 µM,> 100 µM,> 100 µM,> 100 µM,> 100 µM,> 100 µM,> 100 µM,> 100 µM,> 100 µM,> 100 µM,–,> 100 µM,> 100 µM,> 100 µM,> 100 µM,> 100 µM,> 100 µM,> 100 µM
O=C(NC1CCN(Cc2ccccc2)CC1)c1ccccc1I,43.6 µM,98.8 µM,> 100 µM,> 100 µM,> 100 µM,63.1 µM,> 100 µM,34.6 µM,36.9 µM,> 100 µM,–,67.7 µM,92.4 µM,> 100 µM,36.5 µM,34.8 µM,> 100 µM,> 100 µM,> 100 µM,41.1 µM
[O-][n+]1onc2c1-c1nonc1CC2,> 100 µM,77.8 µM,> 100 µM,> 100 µM,43.8 µM,53.4 µM,> 100 µM,81.5 µM,> 100 µM,> 100 µM,> 100 µM,> 100 µM,–,> 100 µM,> 100 µM,> 100 µM,> 100 µM,> 100 µM,96.2 µM,69.2 µM
CC(C)=CCC/C(C)=C/CC/C(C)=C/CC/C(C=O)=C/CC/C(C)=C\CC/C(C)=C/CC/C(C)=C/CC/C(C)=C/CC1=CC(=O)C=CC1=O,> 100 µM,> 100 µM,> 100 µM,> 100 µM,> 100 µM,–,> 100 µM,> 100 µM,> 100 µM,> 100 µM,> 100 µM,> 100 µM,> 100 µM,> 100 µM,> 100 µM,–,> 100 µM,> 100 µM,–,> 100 µM
COc1cc(OC)nc(NC(=O)NS(=O)(=O)c2cccc3ncn(C)c(=O)c23)n1,> 100 µM,–,> 100 µM,> 100 µM,> 100 µM,> 100 µM,> 100 µM,–,> 100 µM,> 100 µM,> 100 µM,–,> 100 µM,> 100 µM,–,> 100 µM,> 100 µM,> 100 µM,> 100 µM,> 100 µM
COc1ccc(C2C3=C(CCCC3=O)N(c3ccccc3)C3=C2C(=O)CCC3)cc1,> 100 µM,> 100 µM,> 100 µM,> 100 µM,> 100 µM,> 100 µM,> 100 µM,> 100 µM,–,> 100 µM,> 100 µM,> 100 µM,> 100 µM,–,> 100 µM,> 100 µM,–,> 100 µM,> 100 µM,–
CCC1CCN=C(Cn2cc(C)c(=O)[nH]c2=O)N1 (centres undefined),> 100 µM,> 100 µM,> 100 µM,> 100 µM,–,–,–,–,> 100 µM,> 100 µM,> 100 µM,> 100 µM,> 100 µM,> 100 µM,> 100 µM,> 100 µM,> 100 µM,> 100 µM,–,> 100 µM
Cc1ccccc1Nc1cn(CCOc2ccccc2)c(=O)n(CCOc2ccccc2)c1=O,–,> 100 µM,> 100 µM,> 100 µM,> 100 µM,–,> 100 µM,> 100 µM,> 100 µM,> 100 µM,> 100 µM,> 100 µM,> 100 µM,> 100 µM,> 100 µM,> 100 µM,–,> 100 µM,> 100 µM,–
Cc1c(C)c2ccc(O)cc2[nH]c1=O,–,> 100 µM,> 100 µM,–,> 100 µM,> 100 µM,> 100 µM,> 100 µM,> 100 µM,> 100 µM,> 100 µM,> 100 µM,> 100 µM,> 100 µM,> 100 µM,> 100 µM,> 100 µM,> 100 µM,–,> 100 µM
O=C(Nc1ccc(F)cc1)c1cc2ccc(O)cc2oc1=Nc1cccc(F)c1,> 100 µM,> 100 µM,> 100 µM,> 100 µM,> 100 µM,> 100 µM,> 100 µM,> 100 µM,> 100 µM,–,> 100 µM,> 100 µM,–,> 100 µM,> 100 µM,> 100 µM,41.6 µM,49.7 µM,83 µM,–
Cc1ccc(OCCn2cc(Nc3ccccc3)c(=O)[nH]c2=O)cc1,–,> 100 µM,> 100 µM,> 100 µM,> 100 µM,> 100 µM,> 100 µM,> 100 µM,> 100 µM,> 100 µM,> 100 µM,> 100 µM,> 100 µM,> 100 µM,> 100 µM,> 100 µM,> 100 µM,> 100 µM,–,> 100 µM
